Three molecules from ChEMBL document CHEMBL4390649, “Fine-tuning the neuroprotective and blood-brain barrier permeability profile of multi-target agents designed to prevent progressive mitochondrial dysfunction” (Eur J Med Chem, 2019) can be followed below.

The structures appear in SMILES notation. Calls of active or inactive are those of the source. The rule behind the calls is not given here.

Tested on in one series: not listed separately
As to the kind of experiment: Antioxidant activity assessed as ABTS radical scavenging activity measured after 15 mins by UV-Visible spectrophotometric based assay. In kind it is functional.
Settings: not given
A word on the IC50: it is the concentration at which inhibition is half-maximal. `CS(=O)(=O)[O-].O=C(/C=C/c1ccc(O)c(O)c1)NCCCCCCCCCC[P+](c1ccccc1)(c1ccccc1)c1ccccc1`: the IC50 was determined as 23.5 µM.

Regarding `O=C(NCCCCCCCCCC[P+](c1ccccc1)(c1ccccc1)c1ccccc1)c1ccc(O)c(O)c1.[Br-]`, the IC50 was 19.4 µM.

Turning to `CS(=O)(=O)[O-].O=C(Cc1ccc(O)c(O)c1)NCCCCCCCCCC[P+](c1ccccc1)(c1ccccc1)c1ccccc1`, the IC50 came to 28.1 µM.

Another series has as its system SH-SY5Y. The series can be described thus: Cytotoxicity against human SH-SY5Y cells assessed as reduction in cell viability incubated for 24 hrs by MTT assay relative to control.
Settings: not given
In kind it is cell-based. On the technique in general: Tetrazolium assays rely on reduction of a dye to a coloured formazan, in cell work by metabolically active cells.
`CS(=O)(=O)[O-].O=C(/C=C/c1ccc(O)c(O)c1)NCCCCCCCCCC[P+](c1ccccc1)(c1ccccc1)c1ccccc1`: the Activity entry is “Dose-dependent effect”.

As to `O=C(NCCCCCCCCCC[P+](c1ccccc1)(c1ccccc1)c1ccccc1)c1ccc(O)c(O)c1.[Br-]`, the Activity result was “Dose-dependent effect”.

`CS(=O)(=O)[O-].O=C(Cc1ccc(O)c(O)c1)NCCCCCCCCCC[P+](c1ccccc1)(c1ccccc1)c1ccccc1`: the Activity entry is “Dose-dependent effect”.

Tested on in a further series: not listed separately
As to the kind of experiment: Cytotoxicity against human SH-SY5Y cells assessed as cell metabolic activity at 50 uM incubated for 24 hrs by MTT assay relative to control. The note with it: read-out: Activity. In kind it is ADME, cell-based.
With `CS(=O)(=O)[O-].O=C(/C=C/c1ccc(O)c(O)c1)NCCCCCCCCCC[P+](c1ccccc1)(c1ccccc1)c1ccccc1`, the viability at 24 h, 50 µM worked out at 15.9%.

With `O=C(NCCCCCCCCCC[P+](c1ccccc1)(c1ccccc1)c1ccccc1)c1ccc(O)c(O)c1.[Br-]`, the viability at 24 h, 50 µM came out at 31.1%.

Turning to `CS(=O)(=O)[O-].O=C(Cc1ccc(O)c(O)c1)NCCCCCCCCCC[P+](c1ccccc1)(c1ccccc1)c1ccccc1`, the viability at 24 h, 50 µM turned out to be 85.7%.

Another series deals with SH-SY5Y. As to the kind of experiment: Neuroprotective activity against TBHP-induced oxidative damage in human SH-SY5Y cells assessed as increase in cell viability at 10 uM pretreated for 24 hrs followed by TBHP stimulation measured after 4 hrs by MTT assay relative to control. It is filed as functional, cell-based.
Settings: not given
Take `CS(=O)(=O)[O-].O=C(/C=C/c1ccc(O)c(O)c1)NCCCCCCCCCC[P+](c1ccccc1)(c1ccccc1)c1ccccc1`: the outcome was inactive.

For `O=C(NCCCCCCCCCC[P+](c1ccccc1)(c1ccccc1)c1ccccc1)c1ccc(O)c(O)c1.[Br-]`, the result was inactive.

In the case of `CS(=O)(=O)[O-].O=C(Cc1ccc(O)c(O)c1)NCCCCCCCCCC[P+](c1ccccc1)(c1ccccc1)c1ccccc1`, the outcome was inactive.

Tested on in a further series: not listed separately
As to the kind of experiment: Antioxidant activity assessed as DPPH radical scavenging activity measured after 45 mins by UV-Visible spectrophotometric based assay.
Settings: not given
In kind it is functional. A general note: The DPPH test is a chemical assay of radical scavenging.
Regarding `CS(=O)(=O)[O-].O=C(/C=C/c1ccc(O)c(O)c1)NCCCCCCCCCC[P+](c1ccccc1)(c1ccccc1)c1ccccc1`, the IC50 was found to be 25.9 µM.

`O=C(NCCCCCCCCCC[P+](c1ccccc1)(c1ccccc1)c1ccccc1)c1ccc(O)c(O)c1.[Br-]`: the concentration for half-maximal inhibition (IC50) amounted to 31 µM.

Regarding `CS(=O)(=O)[O-].O=C(Cc1ccc(O)c(O)c1)NCCCCCCCCCC[P+](c1ccccc1)(c1ccccc1)c1ccccc1`, the IC50 was found to be 56.4 µM.

Another series deals with HepG2. As to the kind of experiment: Cytotoxicity against human HepG2 cells assessed as reduction in cell viability incubated for 48 hrs by resazurin assay relative to control. Conditions: hepg2, 48 h. In kind it is cell-based.
On to `CS(=O)(=O)[O-].O=C(/C=C/c1ccc(O)c(O)c1)NCCCCCCCCCC[P+](c1ccccc1)(c1ccccc1)c1ccccc1`, for which the Activity entry is on record as “Dose-dependent effect”.

As to `O=C(NCCCCCCCCCC[P+](c1ccccc1)(c1ccccc1)c1ccccc1)c1ccc(O)c(O)c1.[Br-]`, the Activity result is reported as “Dose-dependent effect”.

In the case of `CS(=O)(=O)[O-].O=C(Cc1ccc(O)c(O)c1)NCCCCCCCCCC[P+](c1ccccc1)(c1ccccc1)c1ccccc1`, the Activity entry is “Dose-dependent effect”.

Another series deals with SH-SY5Y. The series can be described thus: Cytotoxicity against human SH-SY5Y cells assessed as reduction in cell viability at 10 uM incubated for 24 hrs by MTT assay relative to control.
Settings: not given
In kind it is cell-based.
As for `CS(=O)(=O)[O-].O=C(/C=C/c1ccc(O)c(O)c1)NCCCCCCCCCC[P+](c1ccccc1)(c1ccccc1)c1ccccc1`, the Activity is on record as less than 45%.

Take `O=C(NCCCCCCCCCC[P+](c1ccccc1)(c1ccccc1)c1ccccc1)c1ccc(O)c(O)c1.[Br-]`: the Activity is less than 45%.

Tested on in a further series: not listed separately
The series can be described thus: Cytotoxicity against human HepG2 cells assessed as cell metabolic activity at 50 uM incubated for 48 hrs by resazurin assay relative to control. Conditions: read-out: Activity. It is filed as ADME, cell-based. In general terms: The colour change of resazurin is a common sign of viable cells or microbes.
In the case of `CS(=O)(=O)[O-].O=C(/C=C/c1ccc(O)c(O)c1)NCCCCCCCCCC[P+](c1ccccc1)(c1ccccc1)c1ccccc1`, the viability at 48 h, 50 µM was determined as 8.24%.

With `O=C(NCCCCCCCCCC[P+](c1ccccc1)(c1ccccc1)c1ccccc1)c1ccc(O)c(O)c1.[Br-]`, the viability at 48 h, 50 µM was determined as 2.4%.

As for `CS(=O)(=O)[O-].O=C(Cc1ccc(O)c(O)c1)NCCCCCCCCCC[P+](c1ccccc1)(c1ccccc1)c1ccccc1`, the viability at 48 h, 50 µM is 10.7%.

Tested on in the next series: not listed separately
The series can be described thus: Electrochemical behavior of the compound assessed as redox potential corrected toward saturated Ag/AgCl reference electrode by differential pulse voltammetry.
Settings: not given
For the molecule `CS(=O)(=O)[O-].O=C(/C=C/c1ccc(O)c(O)c1)NCCCCCCCCCC[P+](c1ccccc1)(c1ccccc1)c1ccccc1`, the Activity turned out to be 174 mV.

With `O=C(NCCCCCCCCCC[P+](c1ccccc1)(c1ccccc1)c1ccccc1)c1ccc(O)c(O)c1.[Br-]`, the Activity was 210 mV.

Consider `CS(=O)(=O)[O-].O=C(Cc1ccc(O)c(O)c1)NCCCCCCCCCC[P+](c1ccccc1)(c1ccccc1)c1ccccc1`, for which the Activity amounted to 122 mV.

In the next series the test system is SH-SY5Y. The series can be described thus: Neuroprotective activity against 6-OHDA-induced toxicity in human SH-SY5Y cells assessed as reduction in cell damage at 10 to 50 uM pretreated for 24 hrs followed by 6-OHDA challenge and measured after 24 hrs by MTT assay relative to control. In kind it is functional.
Settings: not given
In the case of `CS(=O)(=O)[O-].O=C(/C=C/c1ccc(O)c(O)c1)NCCCCCCCCCC[P+](c1ccccc1)(c1ccccc1)c1ccccc1`, the result was inactive.

Consider `O=C(NCCCCCCCCCC[P+](c1ccccc1)(c1ccccc1)c1ccccc1)c1ccc(O)c(O)c1.[Br-]`, for which the result was inactive.

Tested on in the next series: not listed separately
As to the kind of experiment: Cytotoxicity against human HepG2 cells assessed as cell metabolic activity at 10 uM incubated for 48 hrs by resazurin assay relative to control. In kind it is ADME, cell-based. Conditions: read-out: Activity.
For `CS(=O)(=O)[O-].O=C(/C=C/c1ccc(O)c(O)c1)NCCCCCCCCCC[P+](c1ccccc1)(c1ccccc1)c1ccccc1`, the viability at 48 h, 10 µM worked out at 9.19%.

Turning to `O=C(NCCCCCCCCCC[P+](c1ccccc1)(c1ccccc1)c1ccccc1)c1ccc(O)c(O)c1.[Br-]`, the viability at 48 h, 10 µM came out at 44.6%.

For `CS(=O)(=O)[O-].O=C(Cc1ccc(O)c(O)c1)NCCCCCCCCCC[P+](c1ccccc1)(c1ccccc1)c1ccccc1`, the viability at 48 h, 10 µM turned out to be 85.2%.

The next series deals with SH-SY5Y. The series can be described thus: Neuroprotective activity against TBHP-induced oxidative damage in human SH-SY5Y cells assessed as increase in cell viability at 50 uM pretreated for 24 hrs followed by TBHP stimulation measured after 4 hrs by MTT assay relative to control. In kind it is functional.
Settings: not given
As to `CS(=O)(=O)[O-].O=C(/C=C/c1ccc(O)c(O)c1)NCCCCCCCCCC[P+](c1ccccc1)(c1ccccc1)c1ccccc1`, the result was inactive.

As for `O=C(NCCCCCCCCCC[P+](c1ccccc1)(c1ccccc1)c1ccccc1)c1ccc(O)c(O)c1.[Br-]`, the outcome was inactive.

Turning to `CS(=O)(=O)[O-].O=C(Cc1ccc(O)c(O)c1)NCCCCCCCCCC[P+](c1ccccc1)(c1ccccc1)c1ccccc1`, the outcome was inactive.

Another series deals with SH-SY5Y. As to the kind of experiment: Neuroprotective activity against H2O2-induced oxidative damage in human SH-SY5Y cells assessed as reduction in cell damage at 10 uM pretreated for 24 hrs followed by H2O2 challenge measured after 30 mins by MTT assay relative to control. In kind it is functional.
Settings: not given
Turning to `O=C(NCCCCCCCCCC[P+](c1ccccc1)(c1ccccc1)c1ccccc1)c1ccc(O)c(O)c1.[Br-]`, the result was inactive.

Tested on in the next series: not listed separately
The series can be described thus: Cytotoxicity against human SH-SY5Y cells assessed as cell metabolic activity at 10 uM incubated for 24 hrs by MTT assay relative to control. Conditions: read-out: Activity. It is filed as ADME, cell-based.
Consider `CS(=O)(=O)[O-].O=C(/C=C/c1ccc(O)c(O)c1)NCCCCCCCCCC[P+](c1ccccc1)(c1ccccc1)c1ccccc1`, for which the viability at 24 h, 10 µM is 104%.

As for `O=C(NCCCCCCCCCC[P+](c1ccccc1)(c1ccccc1)c1ccccc1)c1ccc(O)c(O)c1.[Br-]`, the viability at 24 h, 10 µM was 97.8%.

As for `CS(=O)(=O)[O-].O=C(Cc1ccc(O)c(O)c1)NCCCCCCCCCC[P+](c1ccccc1)(c1ccccc1)c1ccccc1`, the viability at 24 h, 10 µM was found to be 94.5%.

Tested on in another series: not listed separately
As to the kind of experiment: Metal chelating activity assessed as compound-Fe2+ complex formation at 100 uM incubated for 10 mins by ferrozine spectrophotometric assay.
Settings: not given
In the case of `CS(=O)(=O)[O-].O=C(/C=C/c1ccc(O)c(O)c1)NCCCCCCCCCC[P+](c1ccccc1)(c1ccccc1)c1ccccc1`, the Activity was more than 80%.

For the molecule `O=C(NCCCCCCCCCC[P+](c1ccccc1)(c1ccccc1)c1ccccc1)c1ccc(O)c(O)c1.[Br-]`, the Activity is more than 80%.

Take `CS(=O)(=O)[O-].O=C(Cc1ccc(O)c(O)c1)NCCCCCCCCCC[P+](c1ccccc1)(c1ccccc1)c1ccccc1`: the Activity was more than 80%.

In another series the test system is SH-SY5Y. The series can be described thus: Induction of ROS generation in human SH-SY5Y cells at 50 uM incubated for 24 hrs by DCFH-DA probe based fluorescence assay relative to control. In kind it is functional.
Settings: not given
`CS(=O)(=O)[O-].O=C(/C=C/c1ccc(O)c(O)c1)NCCCCCCCCCC[P+](c1ccccc1)(c1ccccc1)c1ccccc1` had an Activity of 132.5%.

`O=C(NCCCCCCCCCC[P+](c1ccccc1)(c1ccccc1)c1ccccc1)c1ccc(O)c(O)c1.[Br-]`: the Activity was found to be 68.4%.

`CS(=O)(=O)[O-].O=C(Cc1ccc(O)c(O)c1)NCCCCCCCCCC[P+](c1ccccc1)(c1ccccc1)c1ccccc1` returned an Activity of 103.4%.

Tested on in the next series: not listed separately
The series can be described thus: Electrochemical behavior of the compound assessed as redox potential corrected toward saturated Ag/AgCl reference electrode by cyclic voltammetry.
Settings: not given
In the case of `CS(=O)(=O)[O-].O=C(/C=C/c1ccc(O)c(O)c1)NCCCCCCCCCC[P+](c1ccccc1)(c1ccccc1)c1ccccc1`, the Activity is 174 mV.

For `O=C(NCCCCCCCCCC[P+](c1ccccc1)(c1ccccc1)c1ccccc1)c1ccc(O)c(O)c1.[Br-]`, the Activity was 210 mV.

As to `CS(=O)(=O)[O-].O=C(Cc1ccc(O)c(O)c1)NCCCCCCCCCC[P+](c1ccccc1)(c1ccccc1)c1ccccc1`, the Activity worked out at 122 mV.
